Experimental findings from ChEMBL document CHEMBL1240305, “Alkylation of duplex DNA in nucleosome core particles by duocarmycin SA and yatakemycin” (Nat Chem Biol, 2006) are described below.

Active and inactive are the calls of the source. The rule behind the calls is not given here.

What all share (assay type): nucleic-acid assay
The test system of test [1] is Nucleic Acid. Put plainly: Induction of thermal cleavage in alpha satellite DNA at 10 uM at 25 degC after 1 hr by non-denaturating gel electrophoresis.
Test [2] deals with Nucleic Acid. Briefly: Induction of thermal cleavage in alpha satellite DNA at 10 uM at 25 degC after 30 mins by non-denaturating gel electrophoresis.
The subject of test [3] is Nucleic Acid. Put plainly: Binding affinity to alpha satellite DNA assessed as neucleosome reconstitution after 17 hrs at 25 degC by non-denaturating gel electrophoresis.
Test [4] deals with Nucleic Acid. Briefly: Induction of thermal cleavage in protein free alpha satellite DNA 5'-GGAAAC-3' at 10 uM at 25 degC after 17 hrs by non-denaturating gel electrophoresis.
Test [5] deals with Nucleic Acid. Briefly: Induction of thermal cleavage in protein free alpha satellite DNA 5'-GAAACT-3' at 10 uM at 25 degC after 17 hrs by non-denaturating gel electrophoresis.
Test [6] deals with Nucleic Acid. Briefly: Induction of thermal cleavage in alpha satellite DNA 5'-GAAACT-3' in […] at 10 uM at 25 degC after 17 hrs by non-denaturating gel electrophoresis.
Test [7] deals with Nucleic Acid. Briefly: Induction of thermal cleavage in alpha satellite DNA 5'-GGAAAC-3' in […] at 10 uM at 25 degC after 17 hrs by non-denaturating gel electrophoresis.
In test [8] the test system is Nucleic Acid. Briefly: Induction of DNA alkylation-mediated […] at 25 degC after 16 hrs by non-denaturating gel electrophoresis.
The test system of test [9] is Nucleic Acid. Put plainly: Induction of thermal cleavage in protein free alpha satellite DNA 5'-CAAAAG-3' at 10 uM at 25 degC after 1 hr by non-denaturating gel electrophoresis.
In test [10] the test system is Nucleic Acid. Briefly: Induction of thermal cleavage in alpha satellite DNA 5'-CAAAAG-3' in […] at 10 uM at 25 degC after 17 hrs by non-denaturating gel electrophoresis.

Take `COC(=O)c1cc2c([nH]1)C(=O)C=C1N(C(=O)c3cc4cc(OC)c(OC)c(OC)c4[nH]3)C[C@H]3C[C@]123`: the outcome in the test with Nucleic Acid [1], in the test with Nucleic Acid [3] and in the test on Nucleic Acid [4] was Active. In addition, the Activity in the test on Nucleic Acid [2] amounted to 1 ×10⁻⁵ M.
As to `COc1cc2[nH]c(C(=O)N3C[C@@H]4C[C@]45C3=CC(=O)c3[nH]c(C(=O)N4CCc6c4c(O)c(OC)c4[nH]c(C(=O)SC)cc64)cc35)cc2cc1O`, the outcome in the test on Nucleic Acid [5], in the test with Nucleic Acid [6], in the test on Nucleic Acid [3] and with Nucleic Acid [4] was Active.
For `COc1cc2[nH]c(C(=O)N3C[C@H]4C[C@@]45C3=CC(=O)c3[nH]c(C(=O)N4CCc6c4c(O)c(OC)c4[nH]c(C(=O)SC)cc64)cc35)cc2cc1O`, the outcome in the test with Nucleic Acid [7], with Nucleic Acid [8], in the test on Nucleic Acid [3], with Nucleic Acid [9], in the test with Nucleic Acid [10] and in the test with Nucleic Acid [4] was Active.
